This is an account of results in patent publication US10858388B2, “Selective progesterone receptor modulator (SPRM) regimen” (BAYER PHARMA AKTIENGESELLSCHAFT, priority 2015, dated 2020).

What all share (type): in vivo, human
In data set [1] the test system is subjects with uterine fibroids. Nature of the data set: Study 17541: endometrium thickness, 2x3-month treatment with break period (Example 7). Conditions: 2 mg once daily, 6 subjects, blinded, 2x12 weeks with 1 bleeding episode break or 1x12 weeks. The method, then:
A randomized, parallel-group, double-blind, placebo-controlled, multi-center study to assess efficacy of a dose of 2 mg of Compound 1 where primary efficacy variable is Endometrial thickness, in subjects with uterine fibroids over 2×3-month with break period allowing bleeding episode.
(§1) Route of administration: Oral
Duration of treatment: 2×3-month [2×12 weeks]+one bleeding episode (B1) and 1×3-month [1×12 weeks] (B2) without treatment break
Women, 18 to 50 years old, with uterine fibroids documented by transvaginal or abdominal ultrasound at screening with at least 1 uterine fibroid with largest diameter 3.0 cm and heavy menstrual bleeding (HMB) […] were eligible for enrolment in the study.
Number of Women: 6 subjects that have finalized the treatment
Eligible subjects were equally randomized to one of the treatment groups (Placebo, 2 mg of Compound 1). Treatment period was started during the first three days of the bleeding episode following randomization or ongoing at randomization. The treatment period was consisting of daily tablet intake without treatment break. • Treatment B1: 2 mg of Compound 1 (12 weeks), 1 bleeding episode, 2 mg of Compound 1 (12 • weeks). • Treatment B2: Placebo (12 weeks), 1 bleeding episode, 2 mg of Compound 1 (12 weeks).
Efficacy Measurement: • endometrial biopsies, • cervical smear, • transvaginal ultrasound (TUV) (endometrial thickness, ovaries). […]

Data set [2] concerns subjects with uterine fibroids. The data set can be described thus: Study 17541: endometrium thickness, 3-month vs 6-month treatment without break (Example 6). Conditions: 2 mg once daily, 13 subjects, blinded, preliminary data, 3 or 6 months without break. How it is done: A randomized, parallel-group, double-blind, placebo-controlled, multi-center study to assess efficacy of a dose of 2 mg of Compound 1 where primary efficacy variable is Endometrium thickness, in subjects with uterine fibroids over 3-month vs 6-month with or without treatment break.
as §1
Duration of treatment: 2×12 weeks (A1) or 1×12 weeks (A2) without treatment break
Women, 18 to 50 years old, with uterine fibroids documented by transvaginal or abdominal ultrasound at screening with at least 1 uterine fibroid with largest diameter 3 cm and Heavy Menstrual Bleeding (HMB) 80∃ ml were eligible for enrolment in the study.
Number of Women: 13 subjects having finished the treatment so far.
Eligible subjects were equally randomized to one of the treatment groups (Placebo, 2 mg of Compound 1). Treatment period was started during the first three days of the bleeding episode following randomization or ongoing at randomization. The treatment period will consist of 3 months (12 weeks) or 6 months [2×12 weeks (84 days)] of daily tablet intake without treatment break. • Treatment A1: 2 mg of Compound 1 (12 weeks), 2 mg of Compound 1 (12 weeks). • Treatment A2: Placebo (12 weeks), 2 mg of Compound 1 (12 weeks).
After the end of treatment period, subjects were followed up for 12 weeks. […]

For data set [3], the system named is uterine fibroids. Nature of the data set: Study 15788: change in volume of largest fibroid by MRI and TVU (Example 8). How it is done:
A randomized, parallel-group, double-blind, placebo-controlled, multi-center study to assess efficacy of different doses of Compound 1 where secondary efficacy variable is the change in volume of the largest fibroid in subjects wherein treatment is of 3 months [1×12 weeks (84 days)]. Doses: 0.5 mg, 1 mg, 2 mg, or 4 mg once daily Route of administration: Oral Duration of treatment: 1×12 weeks (84 days) Women, 18 to 50 years old, with uterine fibroids documented by transvaginal or abdominal ultrasound at screening with at least 1 uterine fibroid with largest diameter 3 cm and heavy menstrual bleeding (HMB) 80 ml were be eligible for enrolment in the study. The secondary efficacy variable is the percent change in volume of the largest fibroid compared to baseline (measured by MRI and TVU) • MRI: Magnetic Resonance Imaging • TVU: Transvaginal/abdominal ultrasound Ultrasound examination was performed consistent with the schedule of procedures (Table 1). For each subject, the most appropriate ultrasound method (transvaginal or abdominal) was used depending on fibroid location and this method was consistently used throughout the study. The same ultrasound machine (per site) should be used throughout the study. The 3 largest fibroids were identified during the screening period. […]

Data set [4] relates to subjects with uterine fibroids. The data set can be described thus: Study 15788: amenorrhea, 3-month treatment (Example 4). The method, then:
A randomized, parallel-group, double-blind, placebo-controlled, multi-center study to assess efficacy of different doses of Compound 1 where primary efficacy variable is Amenorrhea, in subjects with uterine fibroids over a 3-month treatment [1×12 weeks/84 days]
Doses: 0.5 mg, 1 mg, 2 mg, or 4 mg once daily
as §1
Duration of treatment: 1×12 weeks (84 days)
Women, 18 to 50 years old, with uterine fibroids documented by transvaginal or abdominal ultrasound at screening with at least 1 uterine fibroid with largest diameter 3 cm and Heavy Menstrual Bleeding (HMB) 80 ml were eligible for enrolment in the study.
Eligible subjects were equally randomized to one of the treatment groups (Placebo, 0.5 mg, 1 mg, 2 mg, or 4 mg Compound 1). Treatment was started during the first week of the menstrual cycle following randomization. The treatment period consisted of 12 weeks (84 days) of daily tablet intake.
Efficacy Measurement: • daily documentation of bleeding intensity (electronic diary or eDiary) • Menstrual Pictogram MP (electronic diary or eDiary) • collection of sanitary products for analysis of menstrual blood loss with alkaline hematin (AH) method
Onset of amenorrhea is defined by the first day for which the menstrual blood loss (assessed by MP) for all subsequent 28-day periods up to the end of the treatment period is less than 2 ml.
The primary objective estimates the dose-response curve based on the primary endpoint women with amenorrhea by dose.

Take `C[C@]12C[C@H](c3ccc(S(C)(=O)=O)cc3)C3=C4CCC(=O)C=C4CC[C@H]3[C@@H]1CC[C@@]2(O)C(F)(F)C(F)(F)F` [Compound 1, (11β,17β)-17-Hydroxy-11-[4-(methylsulphonyl)phenyl]-17-(pentafluoroethyl)estra-4,9-dien-3-one]: the Endometrial size in data set [1] and in data set [2] was no more than 18 mm throughout. For the same molecule, the “Treatment-emergent critical endometrial findings” value in data set [1] and in data set [2] was “no treatment-emergent critical endometrial findings occurred” in each case. Further, the “Fibroid size during treatment” value in data set [3] (0.5-4 mg once daily, 12 weeks, MRI and TVU) is given as “dose-dependent reduction in fibroid size”. In addition, in data set [3] (follow-up after 12 weeks treatment), the “Effect on fibroid size during follow-up” value is listed as “partially sustained during follow-up”. Further, the “Amenorrhea (<2 ml) at EoT (%) 12 Weeks” value was found to be 66.63% in data set [4] (0.5 mg once daily oral), 87.09% in data set [4] (1 mg once daily oral), 91.65% in data set [4] (2 mg once daily oral) and 89.81% in data set [4] (4 mg once daily oral). The Induction of amenorrhea entry in data set [4] (0.5-4 mg once daily, 12 weeks) was “dose-dependent induction of amenorrhea”. The Heavy menstrual bleeding entry in data set [4] (0.5-4 mg once daily, 12 weeks, FIG. 3) is “reduced quickly and sustainably”. Also, the “Subjects achieving amenorrhea during treatment” value in data set [4] (12 weeks, FIG. 3) was “Most subjects even achieved amenorrhea already during treatment”.
